{"source": "patent EP2168584A1", "about": "“PHARMACEUTICAL COMPOSITION COMPRISING THE COMBINATION OF A TRIAZOLOBENZODIAZEPINE AND A SELECTIVE SEROTONIN REUPTAKE INHIBITOR” (World Trade Import-Export, WTIE A.G., priority 2007, dated 2009)", "origin": "cited, not measured here", "key": {"[1]": {"conditions": "relative to the therapeutic activity of Alprazolam"}}, "note": "Read-outs that look alike come from different tables or passages of the source.", "data": [{"smiles": "Cc1nnc2n1-c1ccc(Cl)cc1C(c1ccccc1)=NC2", "note": "[Alprazolam]", "values": [{"measurement": "bound to human serum proteins", "setting": "human serum proteins", "result": 80, "unit": "%"}, {"measurement": "half-life of plasma elimination, range", "setting": "human, in vivo", "result": "6.3 to 26.9", "unit": "h"}, {"measurement": "Maximum plasma concentrations are obtained (time after administration)", "setting": "human, in vivo, po", "result": "1 to 2", "unit": "h"}]}, {"smiles": "CNCCC(Oc1ccc(C(F)(F)F)cc1)c1ccccc1", "note": "(stereo not drawn) [Fluoxetine]", "values": [{"measurement": "degree of fixation of plasma proteins", "setting": "plasma proteins", "result": "especially high"}]}, {"smiles": "Fc1ccc([C@@H]2CCNC[C@H]2COc2ccc3c(c2)OCO3)cc1", "note": "[Paroxetine]", "values": [{"measurement": "degree of fixation of plasma proteins", "setting": "plasma proteins", "result": "especially high"}, {"measurement": "binds to plasma proteins", "setting": "plasma proteins; plasma", "result": 95, "unit": "%"}, {"measurement": "elimination half-life", "setting": "elderly and severe hepatic failure patients", "result": "≤ 36", "unit": "h"}, {"measurement": "oral bioavailability", "setting": "first-step metabolism", "result": 50, "unit": "%"}, {"measurement": "elimination half-life", "setting": "human, in vivo", "result": 21, "unit": "h"}, {"measurement": "dose metabolized", "setting": "mainly in the liver, inactive metabolites", "result": "More than 95%"}]}, {"smiles": "CN[C@H]1CC[C@@H](c2ccc(Cl)c(Cl)c2)c2ccccc21", "note": "[Sertraline]", "values": [{"measurement": "degree of fixation of plasma proteins", "setting": "plasma proteins", "result": "especially high"}]}, {"smiles": "OCc1nnc2n1-c1ccc(Cl)cc1C(c1ccccc1)=NC2", "note": "[alpha-hydroxy-alprazolam]", "values": [{"measurement": "biological activity of metabolite", "setting": "[1]", "result": "approximately to half of the therapeutic activity of Alprazolam"}]}]}
